Test results as given in patent publication US11878015B2, “Piperidine-substituted Mnk inhibitors and methods related thereto” (eFFECTOR Therapeutics Inc., priority 2017, dated 2024).
Like-named read-outs stand apart in the source and are kept apart here.

What was measured:
PD-1 = PD-1 (CD279) expression on PHA/PMA-activated Jurkat T cells, flow cytometry; format: cell-based; settings: Homo sapiens, percentage of inhibition of PD-1 positive cells at 10 μM, 48 hours
Experimental: To examine the effect of MNK inhibitors on PD-1 expression, Jurkat cells (Clone E6.1, ATCC, transformed T cells) were used, which express PD-1 when activated through T cell receptor (TCR) signaling. Briefly, Jurkat cells were grown in 1×RPMI with 1×Pen/Strep, and 10% FBS, then about 3×10^6 Jurkat cells were activated in presence of 1 μg/mL PHA (Sigma) and 50 ng/mL PMA (Sigma). Test Cells were treated simultaneously with various concentrations of an MNK inhibitor (0, 0.01, 0.1, 1, 3 and 10 μM). After 48 hours, culture supernatants were harvested and examined via sandwich ELISA for the presence of IL-2 using human IL-2 ELISA DuoSet (R&D Systems, Minneapolis, Minn.). The level of PD-1 on Jurkat cells was examined by incubating with human FcR block, then contacted with allophycocyanin (APC) conjugated anti-PD-1 antibody (5 μl per 100 μl volume of test, Biolegend, San Diego, CA) for 25 minutes at 4° C., without washing the cells, fixable dead cell stain (1:10,000; BD Biosciences, San Jose, CA) was added and incubated further for 10 minutes at 4° C. Cells were washed two times with flow buffer, and finally cells were fixed with fixation buffer for 15 minutes at 4° C. After fixation, cells were washed twice with flow buffer and re-suspended in flow buffer and assessed for fluorescence using BD Accuri C6 flow cytometer. Data were analyzed using the C6 cytometer software (BD Biosciences, San Jose, CA) or Attune Nxt Cytometer (Invitrogen, Carlsbad, CA).
Activation of Jurkat T cells with PHA and PMA induced the expression of PD-1 on the cell surface of about 25-30% of the stimulated Jurkat cells as compared to uninduced cells (Unstim) and induced a 1,000-fold increase in IL-2 cytokine production, respectively. […] Lastly, MNK inhibition by various different MNK inhibitors had no effect on cell viability. […] To this end, percentage of inhibition of PD-1 positive cells (10 μM) of more than 50% are labelled as “+++”, from 10% to 50% are labelled as “++”, and less than 10% are labelled as “+” (NA means “not available”).

[1] = High throughput thermodynamic solubility procedure; format: physicochemical; settings: for solubility in fasted state simulated gastric fluid (FaSSGF), in words: pH value of 1.6
Experimental: In a 96-well plate, 10 mM DMSO stocks (50-100 uL) of each compound were dried under heated nitrogen flow using a SPE-96 plate dryer (upper flow rate=50 L/min, temperature=60° C., lower flow rate=20 L/min, temperature=80° C.). […] Compounds prepared as the free base were assessed in conditions with and without one equivalent of TFA added. The theoretical maximum concentrations of the aqueous solutions were 10 mM. Each well was capped and incubated for a period of 18 hours at room temperature or 37° C. Mixing of the solutions during the incubation period was performed by either shaking the plate at 750 rpm or adding StirStix (stainless steel capillaries) and agitating the mixture using a rotary magnetic tumble stirrer. After the incubation period, aliquots from each well were filtered. Solubility of all samples were quantified following comparison to standards of known concentration by HPLC-UV.

Phosphorylated eIF4E = experiment: peIF4E signaling cellular assay (CisBio peIF4E HTRF); format: cell-based; settings: 2 hrs incubation at 37° C., 12-point curve 20 μM to 0.1 nM; read-out: pEI4IE signaling activity
Experimental: Phosphorylated eIF4E is assayed using the CisBio peIF4E HTRF® assay kit (CisBio, catalogue No. 64EF4PEG). Cells are plated in 96-well tissue-culture treated plate in appropriate growth medium (90 μL). Compounds (10×) are diluted using 3-fold serial dilutions in cell culture medium and added to cells. Plates are incubated for 2 hrs at 37° C. The cell supernatant is carefully removed either by aspirating supernatant or by flicking the plate. Immediately 50 μL of supplemented lysis buffer (1×) is added and incubated for at least 30 minutes at room temperature under shaking. After homogenization by pipeting up and down, 16 μL of cell lysate is transferred from the 96-well cell-culture plate to a 384-well small volume white plate. 4 μL of premixed antibody solutions (vol/vol) is prepared in the detection buffer and added. The plate is covered with a plate sealer and incubated overnight at room temperature. The fluorescence emissions at two different wavelengths are read (665 nm and 620 nm) on a Wallac Victor2. Emission ratios are converted into percent inhibitions and imported into GraphPad Prism software. […] IC50 values are determined using a nonlinear regression model available in GraphPad Prism 5.
To this end, IC50 values of less than 0.001 μM are labelled as “+++”, from 0.001 to 0.01 μM are labelled as “++”, and greater than 0.01 μM are labelled as “+” (NA means “not available”).

[2] = Fasted-State Simulated Intestinal Fluid (FaSSIF), pH 6.5, fassif, thermodynamic from solid, Fasted-State Simulated Intestinal Fluid, 18 hours incubation, theoretical maximum 10 mM, read-out: Aqueous Solubility FaSSIF (pH 6.5)
[3] = thermodynamic from solid, deionized water, 18 hours incubation, theoretical maximum 10 mM, read-out: Aqueous Solubility DI H2O

solubility at 18 h [1, 2]	IC50 (Phosphorylated eIF4E) [nM]	solubility at 18 h [1, 3]	solubility in fasted state simulated gastric fluid (FaSSGF), in words [1]	SMILES	inhibition at 10 µM (PD-1) [%]	solubility in DI water at 18 h ([1]; thermodynamic from solid, deionized water, 18 hours incubation, theoretical maximum 10 mM) [µM]
30 µM	1 to 10	4400 µM		Cc1cc(Nc2ncnc(N)c2C)c(=O)n2c1C(=O)NC21CCN(CCC(F)(F)F)CC1 [Compound 3AA]	< 10	
	> 10			Cc1cc(Nc2ncnc(N)c2C)c(=O)n2c1C(=O)NC21CCCNC1 (stereo not drawn) [Compound 3B]		
107 µg/mL	> 10			Cc1cc(Nc2ncnc(N)c2C)c(=O)n2c1C(=O)NC21CCCN(C(C)(C)C)C1 (stereo not drawn) [Compound 3V]		
256 µM	1 to 10	2600 µM		Cc1cc(Nc2ncnc(N)c2Cl)c(=O)n2c1C(=O)NC21CCCNC1 (stereo not drawn) [Compound 3C]	> 50	
151 µg/mL	> 10	1770 µg/mL	excellent solubility	Cc1cc(Nc2ncnc(N)c2C#N)c(=O)n2c1C(=O)N[C@@]21CCCN(C)C1 (single isomer, unassigned) [Compound 2Fb]	10 to 50	
	> 10			Cc1cc(Nc2ncnc(N)c2C)c(=O)n2c1C(=O)NC21CCCN(CCC(F)(F)F)C1 (stereo not drawn) [Compound 3E]		
240 µM	1 to 10	4300 µM	excellent solubility	Cc1cc(Nc2ncnc(N)c2C)c(=O)n2c1C(=O)NC21CCCN(C)C1 (racemic) [rac-1F, 6-((6-amino-5-methylpyrimidin-4-yl)amino)-1′,8-dimethyl-2H-spiro[imidazo[1,5-a]pyridine-3,3′-piperidine]-1,5-dione]	10 to 50	
125 µg/mL	> 10	> 1850 µg/mL	excellent solubility	Cc1cc(Nc2ncnc(N)c2C)c(=O)n2c1C(=O)N[C@]21CCCN(C)C1 (stereo in doubt) [Compound 1Fa, (R)-6-((6-amino-5-methylpyrimidin-4-yl)amino)-1′,8-dimethyl-2H-spiro[imidazo[1,5-a]pyridine-3,3′-piperidine]-1,5-dione]	10 to 50	
	< 1			Cc1cc(Nc2ncnc(N)c2C)c(=O)n2c1C(=O)NC21CCCN2CCCC21 (stereo not drawn) [Compound 3O]		
	1 to 10			Cc1cc(Nc2ncnc(N)c2Cl)c(=O)n2c1C(=O)NC21CCCN(CC2CC2)C1 (stereo not drawn) [Compound 3J]		
	< 1		excellent solubility	Cc1cc(Nc2ncnc(N)c2Cl)c(=O)n2c1C(=O)N[C@]21CCCN(C)C1 [Compound 3Y]		
70 µM	1 to 10	3200 µM	excellent solubility	Cc1cc(Nc2ncnc(N)c2Cl)c(=O)n2c1C(=O)N[C@@]21CCCNC1 [Compound 3L]	> 50	
77 µg/mL	1 to 10	1840 µg/mL	excellent solubility	Cc1cc(Nc2ncnc(N)c2C#N)c(=O)n2c1C(=O)N[C@]21CCCN(C)C1 (single isomer, unassigned) [Compound 2Fa]	10 to 50	
110 µM	1 to 10	3300 µM	excellent solubility	Cc1cc(Nc2ncnc(N)c2Cl)c(=O)n2c1C(=O)NC21CCCN(C)C1 (stereo not drawn) [Compound 3D]		
	< 1			Cc1cc(Nc2ncnc(N)c2Cl)c(=O)n2c1C(=O)NC21CCCN(CC(F)F)C1 (stereo not drawn) [Compound 3I]		
79 µg/mL	1 to 10		excellent solubility	Cc1cc(Nc2ncnc(N)c2C#N)c(=O)n2c1C(=O)NC21CCCN(C)C1 (racemic) [rac-2F]	10 to 50	

solubility at 18 h [1, 2]	IC50 (Phosphorylated eIF4E) [nM]	solubility at 18 h [1, 3]	solubility in fasted state simulated gastric fluid (FaSSGF), in words [1]	SMILES	inhibition at 10 µM (PD-1) [%]	solubility in DI water at 18 h ([1]; thermodynamic from solid, deionized water, 18 hours incubation, theoretical maximum 10 mM) [µM]
	1 to 10			Cc1cc(Nc2ncnc(N)c2C)c(=O)n2c1C(=O)NC21CCN(CC(C)(C)F)CC1 [Compound 3GG]		
18 µM	1 to 10			Cc1cc(Nc2ncnc(N)c2C)c(=O)n2c1C(=O)NC21CCN(CC2(F)CC2)CC1 [Compound 3HH]	< 10	
	1 to 10			Cc1cc(Nc2ncnc(N)c2Cl)c(=O)n2c1C(=O)NC21CCN(C2CC2)CC1 [Compound 3Z]		
593 µg/mL	1 to 10			Cc1cc(Nc2ncnc(N)c2Cl)c(=O)n2c1C(=O)NC21CCCN(C(C)(C)C)C1 (stereo not drawn) [Compound 3W]		
	< 1			Cc1cc(Nc2ncnc(N)c2Cl)c(=O)n2c1C(=O)NC21CCN(C)C(C)(C)C1 (stereo not drawn) [Compound 3FF]	10 to 50	
	< 1		excellent solubility	Cc1cc(Nc2ncnc(N)c2Cl)c(=O)n2c1C(=O)N[C@@]21CCCN(C)C1 [Compound 3X]		
	1 to 10	240 µM		Cc1cc(Nc2ncnc(N)c2Cl)c(=O)n2c1C(=O)NC21CCCN(CCC(F)(F)F)C1 (stereo not drawn) [Compound 3F]		
	> 10			Cc1cc(Nc2ncnc(N)c2C)c(=O)n2c1C(=O)NC21CCCN(CC2CC2)C1 (stereo not drawn) [Compound 3H]		
	< 1			Cc1cc(Nc2ncnc(N)c2Cl)c(=O)n2c1C(=O)NC21CCCN2CCCC21 (stereo not drawn) [Compound 3P]		
	1 to 10			Cc1cc(Nc2ncnc(N)c2C)c(=O)n2c1C(=O)NC21CCCN(C(C)C)C1 (stereo not drawn) [Compound 3Q]		
	> 10			Cc1cc(Nc2ncnc(N)c2C#N)c(=O)n2c1C(=O)NC21CCCNC1 (stereo not drawn) [Compound 3U]		
	< 1			Cc1cc(Nc2ncnc(N)c2Cl)c(=O)n2c1C(=O)NC21CCN(CCC(F)(F)F)CC1 [Compound 3BB]	< 10	
	1 to 10			Cc1cc(Nc2ncnc(N)c2C)c(=O)n2c1C(=O)NC21CCCN(CC(F)F)C1 (stereo not drawn) [Compound 3G]		
68 µg/mL	< 1			Cc1cc(Nc2ncnc(N)c2Cl)c(=O)n2c1C(=O)NC21CCCN(C(C)C)C1 (stereo not drawn) [Compound 3R]		
	1 to 10			CCN1CCCC2(C1)NC(=O)c1c(C)cc(Nc3ncnc(N)c3C)c(=O)n12 (stereo not drawn) [Compound 3N]		
	1 to 10			Cc1cc(Nc2ncnc(N)c2Cl)c(=O)n2c1C(=O)NC21CC(C)N(C)C(C)C1 (stereo not drawn) [Compound 3EE]	> 50	

SMILES	solubility at 18 h [1, 2]	IC50 (Phosphorylated eIF4E) [nM]	solubility at 18 h [1, 3]	solubility in fasted state simulated gastric fluid (FaSSGF), in words [1]	inhibition at 10 µM (PD-1) [%]	solubility in DI water at 18 h ([1]; thermodynamic from solid, deionized water, 18 hours incubation, theoretical maximum 10 mM) [µM]
Cc1cc(Nc2ncnc(N)c2Cl)c(=O)n2c1C(=O)NC21CCCCC1.Cl [Compound 4A, 6′-((6-amino-5-chloropyrimidin-4-yl)amino)-8′-methyl-2′H-spiro[cyclohexane-1,3′-imidazo[1,5-a]pyridine]-1′,5′-dione Hydrochloride, reference compound]	45 µM				> 50	300
